Assay results published in PubChem BioAssay AID179 (DTP/NCI, 2004).
Values joined by “and” are separate entries in the source; they are usually repeats but may differ in a detail not shown here. Identical values can stand only once. Active and inactive are the calls of the source.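 The calls were made as follows: active = compounds giving half or more protection of infected cells from virus-caused growth loss, again on retest; inactive = the rest.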

Tested on: CEM cells HIV-1 protection, formazan growth assay
Assay: NCI AIDS Antiviral Assay
Conditions: for IC50: measured here: growth of uninfected CEM cells
Procedure, shortened: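 Protection of CEM cells against HIV-1 was scored from cell growth (soluble formazan) across five concentrations, with parallel uninfected cells. Lack of protection may reflect toxicity.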

| Structure (SMILES) | EC50 [µM] | IC50 | outcome |
| --- | --- | --- | --- |
| Clc1ccc(CSc2nnc(SCc3ccc(Cl)c(Cl)c3)c3[nH]cnc23)cc1Cl | > 200 | 12.6 µM |  |
| Clc1cc(C(c2cc(Cl)sc2Cl)c2cc(Cl)sc2Cl)c(Cl)s1 | > 50.1 | > 50.1 µM |  |
| CC(=O)Oc1c(C)c(-c2ccccc2)c(C)c(-c2ccccc2)c1C(=S)c1ccccc1 |  |  | inactive |
| O=C1C=CC=CC2CC=C[C@@H](O)C12 (some centres undefined) | > 251 | 12 µM |  |
| COc1cc(C(c2ccc(N(Cc3ccccc3)Cc3ccccc3)cc2NC(C)=O)c2ccc(N(Cc3ccccc3)Cc3ccccc3)cc2NC(C)=O)ccc1O | > 200 | > 200 µM |  |
| COc1ccc(C(=O)/C=C/c2ccc(OCCCOc3ccc(/C=C/C(=O)c4ccc(OC)cc4)cc3)cc2)cc1 | > 200 | > 200 µM |  |
| O=C(Nc1ccc([N+](=O)[O-])cc1)C1C(=O)C(=O)N(c2ccc([N+](=O)[O-])cc2)C1=O (centres undefined) | > 234 | > 234 µM |  |
| CCN(c1ccccc1)c1nc(N)nc(NS(=O)(=O)c2cc(C)c(Cl)cc2S)n1 | 70.8 | > 200 µM |  |
| C=C(COCO)C(C)=O | > 200 | 1.45 µM |  |
| O=C(CN1CCN(c2ccccn2)CC1)N1CCCn2c1nc1ccccc1c2=O | > 200 | > 200 µM |  |
| O=C1NC2CC1C(O)C2O (centres undefined) | > 200 | > 200 µM |  |
| CC(C)(C)O/N=C/c1cc(NC(=S)c2ccccc2)ccc1Cl | 0.135 | 10.7 µM |  |
| CC(C)(C)c1cc(-c2ccc(-c3cc(C(C)(C)C)c(O)c(C(C)(C)C)c3)cc2)cc(C(C)(C)C)c1O | > 100 | > 100 µM |  |
| CC(=O)SC(SC(C)=O)SC(C)=O | > 209 | 155 µM |  |
| O=C1c2ccccc2-c2c1c1ccccc1c(=O)n2Cc1ccccc1 | > 29.5 | > 29.5 µM |  |
| CCc1n[nH]c(=O)n1/N=C/c1ccccc1Cl | > 200 | > 200 µM |  |
| CC1=Nc2ccccc2/C1=C\c1c(C)[nH]c2ccccc12 | 0.0631 | 11.5 µM |  |
| Oc1ccc(Cl)cc1Sc1cc(Cl)ccc1O | > 200 | 7.41 µM |  |
| S=c1nc2[nH]c3ccccc3c2n[nH]1 | > 200 | > 200 µM |  |
| CC(C)N(c1cc2c(cc1F)c(=O)c(C(=O)O)cn2-c1ccc(N2CCN(C)CC2)cn1)C(C)C | > 200 | > 200 µM |  |
| COC(=O)C1(NC(=O)C(N)CC(=O)O)CC1(C)C (centres undefined) | > 200 | > 200 µM |  |
| O=C1C2C(C(=O)N1c1ccccc1)C1([N+](=O)[O-])C=C3c4ccccc4N(C(=O)c4ccccc4)C32C2C(=O)N(c3ccccc3)C(=O)C21 (centres undefined) |  |  | inactive |
| CC(=O)O[C@H]1C=CC23OC(=O)[C@]1(C)[C@H]2[C@H](C(=O)O)C12CC(=O)[C@@](CO)(CC[C@H]13)C2 |  |  | inactive |

| Structure (SMILES) | EC50 [µM] | IC50 | outcome |
| --- | --- | --- | --- |
| COc1ccc(/C=N/NS(=O)(=O)c2ccccc2)cc1 |  |  | inactive |
| O=c1cccc(-c2cccc(=O)[nH]2)[nH]1 |  |  | inactive |
| CCOC(=O)CCC(NC(=O)c1ccc(OCc2ccc3nc(OC)c(OC)nc3c2)cc1)C(=O)OCC (centres undefined) | > 200 | 41.7 µM |  |
| CCN1c2ccccc2-n2c(C)nnc2-c2c1n[nH]c2-c1ccccc1 | > 200 | 28.2 µM |  |
| CC(OC(=O)C(CC(=O)OC(C)(C)C)NC(=O)OC(C)(C)C)C(=O)OCc1ccccc1 (centres undefined) | > 200 | > 200 µM |  |
| Cc1ccc(C(=O)Nc2ccccc2)cc1N=NN(C)C | > 331 | 288 µM |  |
| c1cc(C[S+]2CCCC2)oc1C[S+]1CCCC1 | > 200 | 102 µM |  |
| CN1CSC(=S)N(C)C1 | > 200 | 13.2 µM |  |
| CCN(CCNc1ccc(C)c2sc3ccccc3c(=O)c12)CC(C)(C)O | > 200 | 7.94 µM |  |
| S=P(c1ccccc1)(N1CCCCC1)N1CCCCC1 | > 43.7 | > 43.7 µM |  |
| CN(C)[C@@H]1C(=O)C(C(=O)NCNC2(C(=O)O)CCCC2)=C(O)[C@@]2(O)C(=O)C3=C(O)c4c(O)cccc4[C@@](C)(O)[C@H]3C[C@@H]12 | > 214 | 117 µM |  |
| NNC(=O)/C(NC(=O)c1ccccc1)=C(\N)c1cccc([N+](=O)[O-])c1 | > 15.1 | > 15.1 µM |  |
| CCCn1ccc(=O)c(O)c1C | > 200 | 35.5 µM |  |
| CCOC(=O)C(NC(=O)c1ccccc1)(N1CCN(c2cc3c(cc2F)c(=O)c(C(=O)O)cn3C2CC2)CC1)C(F)(F)F (centres undefined) | > 200 | 20.4 µM |  |
| O=C1CSc2nc3ccccc3n2/C=N\N1 | > 200 | > 200 µM |  |
| CN1C(=O)N(C)C(N2CCCC2)c2c1nc1ccccn1c2=O (centres undefined) | > 219 | 66.1 µM |  |
| COC(=O)c1cc2c(o1)Sc1ccccc1NC2=O | > 200 | > 200 µM |  |
| O=C1CCCCC/C1=C\c1cccc([N+](=O)[O-])c1 | > 200 | 23.4 µM |  |
| c1ccc(Cc2nc3ccccc3[nH]2)cc1 | > 34.7 | > 34.7 µM |  |
| NNC(=O)NNC(=O)NN | > 200 | > 200 µM |  |
| CCOC(=O)N/N=C(/N)Cc1ccc(Cl)cc1 | > 200 | 120 µM |  |
| CC(=O)OCC1OC(n2c3c(cc(C#N)c2=S)CCC3)C(OC(C)=O)C(OC(C)=O)C1OC(C)=O (centres undefined) | > 200 | 102 µM |  |
| COC1C(N)C(OC2C(Oc3cccc4c(O)c5c(=O)oc6ccc(C)c7c(=O)oc(c34)c5c67)OC(C)C(O)C2(C)O)OC(C)C1O (centres undefined) | > 0.2 | 0.0363 µM |  |

| Structure (SMILES) | EC50 [µM] | IC50 | outcome |
| --- | --- | --- | --- |
| CC12CC3CC(C)(C1)CC(N=[N+]=[N-])(C3)C2 | > 91.2 | > 91.2 µM |  |
| O=C(NCCc1ccccc1)c1cc2ccc(O)c(O)c2cn1 | > 145 | 4.37 µM and 2.04 µM |  |
| NC1=CN2c3ccccc3N(CC(=O)N3CCOCC3)C2C=C1 (centres undefined) | > 200 | > 200 µM |  |
| CCOP(=O)(OCC)c1cc(NC(=O)c2cc(NC(=O)c3cc(NC(=O)Nc4cc(C(=O)Nc5cc(C(=O)Nc6cc(P(=O)(OCC)OCC)c7cccc(P(=O)(OCC)OCC)c7c6)n(C)c5)n(C)c4)cn3C)cn2C)cc2c(P(=O)(OCC)OCC)cccc12 | > 200 | > 200 µM |  |
| C#CC(O)/C=C/C(O)CCCC(O)CC#CC(O)C#CC(O)CCCC(O)/C=C/CCCCCC(=O)CCCCCCCCCCCCCC(O)C(O)C#CC(=O)O (centres undefined) | > 100 | 58.9 µM |  |
| O=c1c(-c2ccc(O)cc2)coc2c(O)c(O)ccc12 | > 200 | 28.8 µM |  |
| CCOC(=O)c1c(N)sc2c1C(C(=O)OCC)CC2 (centres undefined) | > 200 | 174 µM |  |
| O=C1/C(=C/c2ccco2)NC(=S)N1CN1CCCCC1 | > 200 | 32.4 µM |  |
| O=C1CCC2(C=Nc3ccccc32)C2Cc3ccccc3N12 (centres undefined) | > 13.2 | > 13.2 µM |  |
| CCOC(OCC)N1C(=O)C2(C(OCC)OCC)CC3C(OC(=O)N3N)c3cccc1c32 (centres undefined) |  |  | inactive |
| Cc1ccc(S(=O)(=O)NC(=O)Nc2nc(Cl)cc(Cl)n2)cc1 | > 100 | 87.1 µM |  |
| CCOC(=O)c1c(Sc2ccc([N+](=O)[O-])cc2[N+](=O)[O-])nc2c3ccccc3ccn12 | > 200 | > 200 µM |  |
| Cc1ccc(NC(=O)C(=O)Cc2cc[n+]([O-])cc2)cc1 | > 47.9 | > 47.9 µM |  |
| C/C(O)=C(/C=N/C(N)=S)C(N)=O |  |  | inactive |
| O=C1NC(O)c2ccccc2O1 (centres undefined) | 85.1 | > 200 µM |  |
| FC(F)(Sc1ncccn1)c1nc(-c2ccccc2)no1 | > 200 | 53.7 µM |  |
| Cc1ccc(N=Nc2ccc(O)c(CN(C)C)c2)cc1C | > 200 | 17.4 µM |  |
| CCO/C=C1\N=C(c2ccc(Cl)c(Cl)c2)OC1=O | > 126 | > 126 µM |  |
| CC(CCc1nc2ccccc2[nH]1)C1CCC2C3CC[C@@H]4C[C@H](O)CC[C@]4(C)C3CC[C@]12C (some centres undefined) | > 50.1 | > 50.1 µM |  |
| COc1ccc(/C=C/c2cc(OC)c(OC)c(OC)c2)cc1O | > 10 | 0.145 µM |  |
| N/C(=N/N=C/c1ccc(Cl)c([N+](=O)[O-])c1)NO |  |  | inactive |
| CC(=O)C1C(=O)C(=O)N(c2ccc(Br)cc2)C1=O (centres undefined) |  |  | inactive |
| c1cnn([B-]2(n3cccn3)n3ccc[n+]3[B-](n3cccn3)(n3cccn3)n3ccc[n+]32)c1 | > 200 | > 200 µM |  |

| Structure (SMILES) | EC50 [µM] | IC50 | outcome |
| --- | --- | --- | --- |
| CC(C)N1CSC(=S)N(Cc2ccccc2)C1 | > 37.2 | 32.4 µM |  |
| c1ccc2c(c1)[nH]c1c2c(N2CCOCC2)nn2cnnc12 | > 200 | > 200 µM |  |
| Cn1ccnc1Sc1c([N+](=O)[O-])ncn1C | > 1050 | 7.94 µM |  |
| O=C1Nc2cc(Cl)ccc2C(=O)N2CCC[C@@H]12 | > 200 | > 200 µM |  |
| O=c1c2cc3c(=O)n4c(cc(-c5ccccc5)c5cc(Cl)ccc54)nc3cc2nc2cc(-c3ccccc3)c3cc(Cl)ccc3n12 | > 100 | > 100 µM |  |
| CCC1=C(CC2NCCc3ccccc32)CC2c3cc(OC)c(OC)cc3CCN2C1 (centres undefined) |  |  | inactive |
| Cn1c(=O)n2n(c1=O)C1C(=CC2)C2C=CC1n1c(=O)n(C)c(=O)n12 (centres undefined) | > 200 | > 200 µM |  |
| [Cl][Sn]([c]1ccccc1)([c]1ccccc1)[c]1ccccc1 |  |  | inactive |
| O=C1C(=O)N(c2ccc(Cl)cc2Cl)C(=O)C(=O)C1c1nc2ccccc2s1 | > 85.1 | > 85.1 µM |  |
| Cc1nc2c(ccc3ncccc32)[nH]1 |  |  | inactive |
| CN(CCO)CCCC1COc2ccccc2O1 (centres undefined) | > 200 | > 200 µM |  |
| CN1C2C=CC(=O)C1C1C(=O)N(c3ccccc3)C(=O)C12 (centres undefined) | > 891 | 5.25 µM |  |
| CCCCCCCCCCCCCCCCCC(=O)OCC(O)CO (centres undefined) | > 2.09 | > 2.09 µM |  |
| C[Si]1(C)CCCSC1 | > 200 | > 200 µM |  |
| Cc1ccc(-c2cc(-c3ccccc3)[s+]c3ccc(C)cc23)cc1 | > 200 | 6.03 µM |  |
| Cn1c(=O)c2[nH]c(SSc3nc4c([nH]3)c(=O)n(C)c(=O)n4C)nc2n(C)c1=O | 35.5 | 162 µM |  |
| CCN(CC)CCNC(=O)C(O)(c1ccccc1)c1ccccc1 | > 200 | > 200 µM |  |
| COC(=O)C1(C(=O)OC)CC2c3c(c4ccccc4n3C)CC(C1=O)N2Cc1ccccc1 (centres undefined) |  |  | inactive |
| CC1OC(=O)C(O)=C1O (centres undefined) |  |  | inactive |
| COc1ccc(Cl)cc1NC(=O)c1ccco1 | > 200 | > 200 µM |  |
